Key:
Type in all cases: ADME
[1] = (§1) The drug is tested on Eubacterium eligens strain: DSM3376 for biotransformation under anaerobic condition. The drug concentrations were measured over 6 timepoints collected between 0 and 12 hours of incubation by liquid-chromatography-coupled mass spectrometry (LC–MS); set-up: dose 5 uM, timepoint 0, 1.5, 3, 6, 9, 12 hours; settings: lachnospira eligens, 5 µM
[2] = The drug is tested on Bacteroides xylanisolvens strain: HM 722 for biotransformation under anaerobic condition. The drug concentrations were measured over 6 timepoints collected between 0 and 12 hours of incubation by liquid-chromatography-coupled mass spectrometry (LC–MS); set-up: dose 5 uM, timepoint 0, 1.5, 3, 6, 9, 12 hours; settings: 5 µM
[3] = The drug is tested on Enterococcus faecalis strain: ATCC29212 for biotransformation under anaerobic condition. The drug concentrations were measured over 6 timepoints collected between 0 and 12 hours of incubation by liquid-chromatography-coupled mass spectrometry (LC–MS); set-up: dose 5 uM, timepoint 0, 1.5, 3, 6, 9, 12 hours; settings: 5 µM
[4] = The drug is tested on Clostridium ramosum strain: DSM1402 for biotransformation under anaerobic condition. The drug concentrations were measured over 6 timepoints collected between 0 and 12 hours of incubation by liquid-chromatography-coupled mass spectrometry (LC–MS); set-up: dose 5 uM, timepoint 0, 1.5, 3, 6, 9, 12 hours; settings: thomasclavelia ramosa, 5 µM
[5] = The drug is tested on Bacteroides caccae strain: DSM19024 for biotransformation under anaerobic condition. The drug concentrations were measured over 6 timepoints collected between 0 and 12 hours of incubation by liquid-chromatography-coupled mass spectrometry (LC–MS); set-up: dose 5 uM, timepoint 0, 1.5, 3, 6, 9, 12 hours; settings: 5 µM
[6] = as §1, with “the gut metagenome community of A-09 with ENA study accession number: PRJEB31790” for “Eubacterium eligens strain: DSM3376”, “7” for “6”; set-up: dose 5 uM, timepoint 0, 0.75, 1.5, 3, 6, 9, 12 hours; settings: 5 µM
[7] = as §1, with “the gut metagenome community of A-06 with ENA study accession number: PRJEB31790” for “Eubacterium eligens strain: DSM3376”, “7” for “6”; set-up: dose 5 uM, timepoint 0, 0.75, 1.5, 3, 6, 9, 12 hours; settings: 5 µM
[8] = The drug is tested on Streptococcus anginosus strain: DSM20563 for biotransformation under anaerobic condition. The drug concentrations were measured over 6 timepoints collected between 0 and 12 hours of incubation by liquid-chromatography-coupled mass spectrometry (LC–MS); set-up: dose 5 uM, timepoint 0, 1.5, 3, 6, 9, 12 hours; settings: 5 µM
[9] = The drug is tested on Gemella haemolysans strain: DSM107751 for biotransformation under anaerobic condition. The drug concentrations were measured over 6 timepoints collected between 0 and 12 hours of incubation by liquid-chromatography-coupled mass spectrometry (LC–MS); set-up: dose 5 uM, timepoint 0, 1.5, 3, 6, 9, 12 hours; settings: 5 µM
[10] = as §1, with “the gut metagenome community of A-10 with ENA study accession number: PRJEB31790” for “Eubacterium eligens strain: DSM3376”, “7” for “6”; set-up: dose 5 uM, timepoint 0, 0.75, 1.5, 3, 6, 9, 12 hours; settings: 5 µM
[11] = The drug is tested on Dorea formicigenerans strain: DSM3992 for biotransformation under anaerobic condition. The drug concentrations were measured over 6 timepoints collected between 0 and 12 hours of incubation by liquid-chromatography-coupled mass spectrometry (LC–MS); set-up: dose 5 uM, timepoint 0, 1.5, 3, 6, 9, 12 hours; settings: 5 µM
[12] = The drug is tested on Clostridium scindens strain: DSM5676 for biotransformation under anaerobic condition. The drug concentrations were measured over 6 timepoints collected between 0 and 12 hours of incubation by liquid-chromatography-coupled mass spectrometry (LC–MS); set-up: dose 5 uM, timepoint 0, 1.5, 3, 6, 9, 12 hours; settings: 5 µM
[13] = as §1, with “the gut metagenome community of A-09 with ENA study accession number: PRJEB31790” for “Eubacterium eligens strain: DSM3376”, “microaerobic” for “anaerobic”, “7” for “6”; set-up: dose 5 uM, timepoint 0, 0.75, 1.5, 3, 6, 9, 12 hours; settings: 5 µM
[14] = The drug is tested on Eubacterium hallii strain: DSM3353 for biotransformation under anaerobic condition. The drug concentrations were measured over 6 timepoints collected between 0 and 12 hours of incubation by liquid-chromatography-coupled mass spectrometry (LC–MS); set-up: dose 5 uM, timepoint 0, 1.5, 3, 6, 9, 12 hours; settings: anaerobutyricum hallii, 5 µM
[15] = (§2) The drug is tested on Gemella haemolysans strain: DSM107751 for biotransformation under microaerobic condition. The drug concentrations were measured over 6 timepoints collected between 0 and 12 hours of incubation by liquid-chromatography-coupled mass spectrometry (LC–MS); set-up: dose 5 uM, timepoint 0, 1.5, 3, 6, 9, 12 hours; settings: 5 µM
[16] = The drug is tested on Blautia hansenii strain: DSM20583 for biotransformation under anaerobic condition. The drug concentrations were measured over 6 timepoints collected between 0 and 12 hours of incubation by liquid-chromatography-coupled mass spectrometry (LC–MS); set-up: dose 5 uM, timepoint 0, 1.5, 3, 6, 9, 12 hours; settings: 5 µM
[17] = The drug is tested on Lactobacillus ruminis strain: ATCC25644 for biotransformation under microaerobic condition. The drug concentrations were measured over 6 timepoints collected between 0 and 12 hours of incubation by liquid-chromatography-coupled mass spectrometry (LC–MS); set-up: dose 5 uM, timepoint 0, 1.5, 3, 6, 9, 12 hours; settings: ligilactobacillus ruminis, 5 µM
[18] = as §2, with “the gut metagenome community of P-01 with ENA study accession number: PRJEB31790” for “Gemella haemolysans strain: DSM107751”, “7” for “6”; set-up: dose 5 uM, timepoint 0, 0.75, 1.5, 3, 6, 9, 12 hours; settings: 5 µM
[19] = The drug is tested on Lactobacillus ruminis strain: ATCC25644 for biotransformation under anaerobic condition. The drug concentrations were measured over 6 timepoints collected between 0 and 12 hours of incubation by liquid-chromatography-coupled mass spectrometry (LC–MS); set-up: dose 5 uM, timepoint 0, 1.5, 3, 6, 9, 12 hours; settings: ligilactobacillus ruminis, 5 µM
[20] = The drug is tested on Akkermansia muciniphila strain: DSM22959 for biotransformation under anaerobic condition. The drug concentrations were measured over 6 timepoints collected between 0 and 12 hours of incubation by liquid-chromatography-coupled mass spectrometry (LC–MS); set-up: dose 5 uM, timepoint 0, 1.5, 3, 6, 9, 12 hours; settings: 5 µM
[21] = The drug is tested on Lactobacillus fermentum strain: DSM20052 for biotransformation under microaerobic condition. The drug concentrations were measured over 6 timepoints collected between 0 and 12 hours of incubation by liquid-chromatography-coupled mass spectrometry (LC–MS); set-up: dose 5 uM, timepoint 0, 1.5, 3, 6, 9, 12 hours; settings: limosilactobacillus fermentum, 5 µM
[22] = The drug is tested on Streptococcus sanguinis strain: DSM20567 for biotransformation under microaerobic condition. The drug concentrations were measured over 6 timepoints collected between 0 and 12 hours of incubation by liquid-chromatography-coupled mass spectrometry (LC–MS); set-up: dose 5 uM, timepoint 0, 1.5, 3, 6, 9, 12 hours; settings: 5 µM
[23] = as §2, with “the gut metagenome community of P-04 with ENA study accession number: PRJEB31790” for “Gemella haemolysans strain: DSM107751”, “7” for “6”; set-up: dose 5 uM, timepoint 0, 0.75, 1.5, 3, 6, 9, 12 hours; settings: 5 µM
[24] = The drug is tested on Lactobacillus fermentum strain: DSM20052 for biotransformation under anaerobic condition. The drug concentrations were measured over 6 timepoints collected between 0 and 12 hours of incubation by liquid-chromatography-coupled mass spectrometry (LC–MS); set-up: dose 5 uM, timepoint 0, 1.5, 3, 6, 9, 12 hours; settings: limosilactobacillus fermentum, 5 µM
[25] = The drug is tested on Bacteroides fragilis strain: DSM2151 for biotransformation under anaerobic condition. The drug concentrations were measured over 6 timepoints collected between 0 and 12 hours of incubation by liquid-chromatography-coupled mass spectrometry (LC–MS); set-up: dose 5 uM, timepoint 0, 1.5, 3, 6, 9, 12 hours; settings: 5 µM
[26] = The drug is tested on Alloscardovia omnicolens strain: DSM21503 for biotransformation under anaerobic condition. The drug concentrations were measured over 6 timepoints collected between 0 and 12 hours of incubation by liquid-chromatography-coupled mass spectrometry (LC–MS); set-up: dose 5 uM, timepoint 0, 1.5, 3, 6, 9, 12 hours; settings: 5 µM
[27] = The drug is tested on Parabacteroides merdae strain: DSM19495 for biotransformation under anaerobic condition. The drug concentrations were measured over 6 timepoints collected between 0 and 12 hours of incubation by liquid-chromatography-coupled mass spectrometry (LC–MS); set-up: dose 5 uM, timepoint 0, 1.5, 3, 6, 9, 12 hours; settings: 5 µM
[28] = The drug is tested on Streptococcus salivarius strain: DSM20560 for biotransformation under microaerobic condition. The drug concentrations were measured over 6 timepoints collected between 0 and 12 hours of incubation by liquid-chromatography-coupled mass spectrometry (LC–MS); set-up: dose 5 uM, timepoint 0, 1.5, 3, 6, 9, 12 hours; settings: 5 µM
[29] = The drug is tested on Lactobacillus gasseri strain: DSM20243 for biotransformation under microaerobic condition. The drug concentrations were measured over 6 timepoints collected between 0 and 12 hours of incubation by liquid-chromatography-coupled mass spectrometry (LC–MS); set-up: dose 5 uM, timepoint 0, 1.5, 3, 6, 9, 12 hours; settings: 5 µM

Structure (SMILES) | Bacterial Biotransformation [1] | Bacterial Biotransformation [2] | Bacterial Biotransformation [3] | Bacterial Biotransformation [4] | Bacterial Biotransformation [5] | Bacterial Biotransformation [6] | Bacterial Biotransformation [7] | Bacterial Biotransformation [8] | Bacterial Biotransformation [9] | Bacterial Biotransformation [10] | Bacterial Biotransformation [11] | Bacterial Biotransformation [12] | Bacterial Biotransformation [13] | Bacterial Biotransformation [14] | Bacterial Biotransformation [15] | Bacterial Biotransformation [16] | Bacterial Biotransformation [17] | Bacterial Biotransformation [18] | Bacterial Biotransformation [19] | Bacterial Biotransformation [20] | also measured
CN(Cc1cnc2nc(N)nc(N)c2n1)c1ccc(C(=O)N[C@@H](CCC(=O)O)C(=O)O)cc1 [METHOTREXATE] | Compound NOT metabolized | Compound NOT metabolized | Compound NOT metabolized | Compound metabolized | Compound NOT metabolized | Compound metabolized | Compound metabolized | Compound NOT metabolized | Compound NOT metabolized | Compound metabolized | Compound NOT metabolized | Compound NOT metabolized | Compound metabolized | Compound metabolized | Compound NOT metabolized | Compound NOT metabolized | Compound NOT metabolized | Compound NOT metabolized | Compound NOT metabolized | Compound NOT metabolized | Bacterial Biotransformation [21]: Compound NOT metabolized; Bacterial Biotransformation [22]: Compound NOT metabolized; Bacterial Biotransformation [23]: Compound NOT metabolized; Bacterial Biotransformation [24]: Compound NOT metabolized; Bacterial Biotransformation [25]: Compound NOT metabolized; Bacterial Biotransformation [26]: Compound NOT metabolized; Bacterial Biotransformation [27]: Compound NOT metabolized; Bacterial Biotransformation [28]: Compound NOT metabolized; Bacterial Biotransformation [29]: Compound NOT metabolized
Cn1cnc([N+](=O)[O-])c1Sc1ncnc2nc[nH]c12 [AZATHIOPRINE] | Compound metabolized | Compound metabolized | Compound metabolized | Compound metabolized | Compound metabolized | Compound metabolized | Compound metabolized | Compound metabolized | Compound NOT metabolized | Compound NOT metabolized | Compound metabolized | Compound metabolized | Compound metabolized | Compound metabolized | Compound NOT metabolized | Compound NOT metabolized | Compound metabolized | Compound NOT metabolized | Compound NOT metabolized | Compound metabolized | Bacterial Biotransformation [21]: Compound NOT metabolized; Bacterial Biotransformation [22]: Compound NOT metabolized; Bacterial Biotransformation [23]: Compound NOT metabolized; Bacterial Biotransformation [24]: Compound metabolized; Bacterial Biotransformation [25]: Compound metabolized; Bacterial Biotransformation [26]: Compound metabolized; Bacterial Biotransformation [27]: Compound metabolized; Bacterial Biotransformation [28]: Compound metabolized; Bacterial Biotransformation [29]: Compound NOT metabolized
CCCC1O[C@@H]2C[C@H]3[C@@H]4CCC5=CC(=O)C=C[C@]5(C)[C@H]4[C@@H](O)C[C@]3(C)[C@]2(C(=O)CO)O1 (some centres not stated) [BUDESONIDE] | Compound NOT metabolized | Compound NOT metabolized | Compound NOT metabolized | Compound NOT metabolized | Compound NOT metabolized | Compound metabolized | Compound metabolized | Compound NOT metabolized | Compound NOT metabolized | Compound NOT metabolized | Compound NOT metabolized | Compound NOT metabolized | Compound metabolized | Compound NOT metabolized | Compound NOT metabolized | Compound NOT metabolized | Compound NOT metabolized | Compound NOT metabolized | Compound NOT metabolized | Compound NOT metabolized | Bacterial Biotransformation [21]: Compound NOT metabolized; Bacterial Biotransformation [22]: Compound NOT metabolized; Bacterial Biotransformation [23]: Compound NOT metabolized; Bacterial Biotransformation [24]: Compound NOT metabolized; Bacterial Biotransformation [25]: Compound NOT metabolized; Bacterial Biotransformation [26]: Compound NOT metabolized; Bacterial Biotransformation [27]: Compound NOT metabolized; Bacterial Biotransformation [28]: Compound NOT metabolized; Bacterial Biotransformation [29]: Compound NOT metabolized
